In test [1] the test system is Influenza A virus. The test is described as follows: In vitro antiviral activity against Influenza A. In kind it is functional, organism-based.
Test [2] deals with Neuraminidase (Influenza A virus (A/Puerto Rico/8/1934(H1N1)), UniProt P03468). The experiment in a line: Inhibition of influenza A sialidase in vitro.
For test [3], the system named is Influenza A virus. The test is described as follows: Inhibitory concentration by Plaque reduction assay; range-1.9-12. Type of test: functional, organism-based. (In general: Plaque reduction counts the foci of infection that form in a cell layer.)
Test [4] relates to Influenza A virus. The experiment in a line: Inhibitory concentration by Plaque reduction assay; range-1.9-20. In kind it is functional, organism-based.

Neuraminidase (Influenza A virus (A/Puerto Rico/8/1934(H1N1)), UniProt P03468), sequence (P03468 whole entry): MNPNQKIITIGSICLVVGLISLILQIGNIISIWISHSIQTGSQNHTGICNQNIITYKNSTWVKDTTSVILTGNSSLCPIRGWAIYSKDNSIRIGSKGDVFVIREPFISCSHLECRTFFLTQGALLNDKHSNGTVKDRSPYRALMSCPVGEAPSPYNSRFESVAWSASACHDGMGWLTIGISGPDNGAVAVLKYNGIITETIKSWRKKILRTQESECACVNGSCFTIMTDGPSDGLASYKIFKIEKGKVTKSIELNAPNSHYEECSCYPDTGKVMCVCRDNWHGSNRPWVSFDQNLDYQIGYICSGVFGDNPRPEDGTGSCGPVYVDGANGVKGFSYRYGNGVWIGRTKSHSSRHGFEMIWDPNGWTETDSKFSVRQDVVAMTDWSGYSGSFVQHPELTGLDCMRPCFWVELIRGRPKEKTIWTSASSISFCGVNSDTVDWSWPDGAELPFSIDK

As usually defined, the IC50 is the point on the concentration scale where inhibition reaches its midpoint. High values mean weaker potency, low ones greater potency. For the molecule `CC(=O)N[C@H]1[C@H]([C@H](OCC2CCCCC2)[C@H](O)CO)OC(C(=O)O)=C[C@@H]1NC(=N)N.O=C(O)C(F)(F)F`, the IC50 in test [1] was 3 ng/mL; in test [2], 67.5 nM.

For `CCCCCCCCO[C@H](CC)[C@@H]1OC(C(=O)O)=C[C@H](N=C(N)N)[C@H]1NC(C)=O.O=C(O)C(F)(F)F`, the IC50 is 40 ng/mL in test [1] and 31.5 nM in test [2].

Regarding `CCCCCO[C@H](CC)[C@@H]1OC(C(=O)O)=C[C@H](N=C(N)N)[C@H]1NC(C)=O.O=C(O)C(F)(F)F`, the figures for the IC50 in test [1] and in test [2] were 3.8 ng/mL and 18.8 nM, respectively.

For the molecule `CC(=O)N[C@H]1[C@H]([C@H](OCCC2CCCCC2)[C@H](O)CO)OC(C(=O)O)=C[C@@H]1NC(=N)N.O=C(O)C(F)(F)F`, the IC50 was 1.9 ng/mL in test [1] and 47.3 nM in test [2].

With `CCCCCCCCCCCCCCO[C@@H]([C@@H]1OC(C(=O)O)=C[C@H](N=C(N)N)[C@H]1NC(C)=O)[C@H](O)CO.O=C(O)C(F)(F)F`, the values for the IC50 in test [1] and in test [2] were 11 ng/mL and 408 nM, respectively.

In the case of `CC(=O)N[C@H]1[C@H]([C@H](OCCN=[N+]=[N-])[C@H](O)CO)OC(C(=O)O)=C[C@@H]1NC(=N)N.O=C(O)C(F)(F)F`, the IC50 in test [1] was 1.5 ng/mL; in test [2], 28.7 nM.

With `CCCO[C@H](CC)[C@@H]1OC(C(=O)O)=C[C@H](N=C(N)N)[C@H]1NC(C)=O.O=C(O)C(F)(F)F`, the results for the IC50 in test [1] and in test [2] were 9 ng/mL and 30.9 nM, respectively.

Turning to `CCCCCCCCCCCCO[C@H](CC)[C@@H]1OC(C(=O)O)=C[C@H](N=C(N)N)[C@H]1NC(C)=O.O=C(O)C(F)(F)F`, the concentration for half-maximal inhibition (IC50) was above 50 ng/mL in test [1] and 48.7 nM in test [2].

Turning to `CCCCCO[C@@H]([C@@H]1OC(C(=O)O)=C[C@H](N=C(N)N)[C@H]1NC(C)=O)[C@H](O)CO.O=C(O)C(F)(F)F`, the IC50 is 2 ng/mL in test [1] and 27.7 nM in test [2].

Consider `CC(=O)N[C@H]1[C@H]([C@H](OCCN)[C@H](O)CO)OC(C(=O)O)=C[C@@H]1NC(=N)N.O=C(O)C(F)(F)F`, for which the IC50 in test [1] is 7.5 ng/mL; in test [2], 97.5 nM.

On to `CCO[C@H](CC)[C@@H]1OC(C(=O)O)=C[C@H](N=C(N)N)[C@H]1NC(C)=O.O=C(O)C(F)(F)F`, for which the IC50 in test [1] is 16 ng/mL; in test [2], 79.3 nM.

Regarding `CCO[C@@H]([C@@H]1OC(C(=O)O)=C[C@H](N=C(N)N)[C@H]1NC(C)=O)[C@H](O)CO`, the IC50 in test [2] is 55.7 nM.

For the molecule `CCCCCCCCO[C@@H]([C@@H]1OC(C(=O)O)=C[C@H](N=C(N)N)[C@H]1NC(C)=O)[C@H](O)CO.O=C(O)C(F)(F)F`, the values for the IC50 in test [1] and in test [2] were 1.8 ng/mL and 36.2 nM, respectively.

Regarding `CCCO[C@@H]([C@@H]1OC(C(=O)O)=C[C@H](N=C(N)N)[C@H]1NC(C)=O)[C@H](O)CO.O=C(O)C(F)(F)F`, the IC50 was 1.5 ng/mL in test [1] and 62.7 nM in test [2].

In the case of `CC(=O)N[C@H]1[C@H]([C@H](OCCO)[C@H](O)CO)OC(C(=O)O)=C[C@@H]1NC(=N)N.O=C(O)C(F)(F)F`, the IC50 was 1.8 ng/mL in test [1] and 21 nM in test [2].

For the molecule `CC(=O)N[C@H]1[C@H]([C@H](O)[C@H](O)CO)OC(C(=O)O)=C[C@@H]1NC(=N)N.O=C(O)C(F)(F)F` [ZANAMIVIR TFA], the IC50 in test [3] and in test [4] was 1.9 ng/mL throughout.

Turning to `CC(=O)NCCO[C@@H]([C@@H]1OC(C(=O)O)=C[C@H](N=C(N)N)[C@H]1NC(C)=O)[C@H](O)CO.O=C(O)C(F)(F)F`, the half-inhibitory concentration (IC50) in test [1] is 2.4 ng/mL; in test [2] it was 18.4 nM.

For the molecule `CCCCCCCCCCCCO[C@@H]([C@@H]1OC(C(=O)O)=C[C@H](N=C(N)N)[C@H]1NC(C)=O)[C@H](O)CO.O=C(O)C(F)(F)F`, the IC50 in test [1] was 2.2 ng/mL; in test [2] it was 80.7 nM.

Source of the values: ChEMBL document CHEMBL1135181, “Synthesis and anti-influenza virus activity of 7-O-alkylated derivatives related to zanamivir” (Bioorg Med Chem Lett, 2002).
